According to patent US12473250B2, “Molecular design of new antibiotics and antibiotic adjuvants against MCR strains” (priority 2019, dated 2025):

Columns and labels:
[1] = test system: KLPN multi-drug resistant strains; test: MIC against multi-drug resistant strains (Table 5); assay type: cell-based, Klebsiella pneumonia; conditions: alone
Summary of the method: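 Wells held ~5×10^5 CFU/mL of bacteria prepared to 0.5 McFarland from overnight TSA colonies and exposed to serially diluted agents, following modified CLSI microdilution. After 24 h at 35 °C, growth judged by turbidity (OD600 possible); 99% inhibition sets the MIC.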

various pathogens = test: organism not typed; assay type: cell-based
Summary of the method: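 Broth microdilution MIC per CLSI: each agent alone and LC compound plus antibiotic (e.g. colistin) combined in equal amounts, serially diluted 2-fold at fixed synergy concentration.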

[2] = 6093560257 [MCR 1+, E. Coli, NDM-1]
[3] = 7103531927 [MCR 1+, E. Coli, KPC+]
[4] = 7113636863 [MCR 1+, E. Coli, NDM-1]

Colistin
MIC ([1]; strain KLPN 8852): >50 µg/mL | MIC ([1]; strain KLPN 15588): 1.56 µg/mL | MIC ([1]; strain KLPN 24076): 1.56 µg/mL | MIC ([1]; strain KLPN 27025): 1.56 µg/mL | FOLD CHANGES [Absorbance (abs; OD 600 nm)] No Treatment [Bacteria alone]: Colistin 0.5 μg (various pathogens; 6083655967 [MCR 1+, E. Coli]): 1.10 | FOLD CHANGES [Absorbance (abs; OD 600 nm)] No Treatment [Bacteria alone]: MIC Colistin (various pathogens; 6083655967 [MCR 1+, E. Coli]): 19.59 | MIC (various pathogens; 6083655967 [MCR 1+, E. Coli]): 6.25 µg/mL | FOLD CHANGES [Absorbance (abs; OD 600 nm)] No Treatment [Bacteria alone]: Colistin 0.5 μg (various pathogens; [2]): 1.14 | FOLD CHANGES [Absorbance (abs; OD 600 nm)] No Treatment [Bacteria alone]: MIC Colistin (various pathogens; [2]): 21.59 | MIC (various pathogens; [2]): 6.25 µg/mL | FOLD CHANGES [Absorbance (abs; OD 600 nm)] No Treatment [Bacteria alone]: Colistin 0.5 μg (various pathogens; 6123520276 [MCR 1+, E. Coli]): 1.04 | FOLD CHANGES [Absorbance (abs; OD 600 nm)] No Treatment [Bacteria alone]: MIC Colistin (various pathogens; 6123520276 [MCR 1+, E. Coli]): 20.10 | MIC (various pathogens; 6123520276 [MCR 1+, E. Coli]): 6.25 µg/mL | FOLD CHANGES [Absorbance (abs; OD 600 nm)] No Treatment [Bacteria alone]: Colistin 0.5 μg (various pathogens; 7023436560 [MCR 1+, E. Coli]): 1.14 | FOLD CHANGES [Absorbance (abs; OD 600 nm)] No Treatment [Bacteria alone]: MIC Colistin (various pathogens; 7023436560 [MCR 1+, E. Coli]): 18.70 | MIC (various pathogens; 7023436560 [MCR 1+, E. Coli]): 6.25 µg/mL | FOLD CHANGES [Absorbance (abs; OD 600 nm)] No Treatment [Bacteria alone]: Colistin 0.5 μg (various pathogens; 7023444207 [MCR 1+, E. Coli]): 1.10 | FOLD CHANGES [Absorbance (abs; OD 600 nm)] No Treatment [Bacteria alone]: MIC Colistin (various pathogens; 7023444207 [MCR 1+, E. Coli]): 17.44 | MIC (various pathogens; 7023444207 [MCR 1+, E. Coli]): 6.25 µg/mL | FOLD CHANGES [Absorbance (abs; OD 600 nm)] No Treatment [Bacteria alone]: Colistin 0.5 μg (various pathogens; 7023446108 [MCR 1−, E. Coli]): 1.15 | FOLD CHANGES [Absorbance (abs; OD 600 nm)] No Treatment [Bacteria alone]: MIC Colistin (various pathogens; 7023446108 [MCR 1−, E. Coli]): 18.04 | MIC (various pathogens; 7023446108 [MCR 1−, E. Coli]): 6.25 µg/mL | FOLD CHANGES [Absorbance (abs; OD 600 nm)] No Treatment [Bacteria alone]: Colistin 0.5 μg (various pathogens; 7033607097 [MCR 1−, E. Coli]): 1.35 | FOLD CHANGES [Absorbance (abs; OD 600 nm)] No Treatment [Bacteria alone]: MIC Colistin (various pathogens; 7033607097 [MCR 1−, E. Coli]): 15.21 | MIC (various pathogens; 7033607097 [MCR 1−, E. Coli]): 6.25 µg/mL | FOLD CHANGES [Absorbance (abs; OD 600 nm)] No Treatment [Bacteria alone]: Colistin 0.5 μg (various pathogens; [3]): 1.06 | FOLD CHANGES [Absorbance (abs; OD 600 nm)] No Treatment [Bacteria alone]: MIC Colistin (various pathogens; [3]): 17.67 | MIC (various pathogens; [3]): 6.25 µg/mL | FOLD CHANGES [Absorbance (abs; OD 600 nm)] No Treatment [Bacteria alone]: Colistin 0.5 μg (various pathogens; [4]): 1.06 | FOLD CHANGES [Absorbance (abs; OD 600 nm)] No Treatment [Bacteria alone]: MIC Colistin (various pathogens; [4]): 16.97 | MIC (various pathogens; [4]): 6.25 µg/mL | FOLD CHANGES [Absorbance (abs; OD 600 nm)] No Treatment [Bacteria alone]: Colistin 0.5 μg (various pathogens; ACBA 1003 (CI)): 1.26 | FOLD CHANGES [Absorbance (abs; OD 600 nm)] No Treatment [Bacteria alone]: MIC Colistin (various pathogens; ACBA 1003 (CI)): 12.60 | MIC (various pathogens; ACBA 1003 (CI)): 1.56 µg/mL | FOLD CHANGES [Absorbance (abs; OD 600 nm)] No Treatment [Bacteria alone]: Colistin 0.5 μg (various pathogens; ACBA 1004 (CI)): 1.09 | FOLD CHANGES [Absorbance (abs; OD 600 nm)] No Treatment [Bacteria alone]: MIC Colistin (various pathogens; ACBA 1004 (CI)): 23.71 | MIC (various pathogens; ACBA 1004 (CI)): 1.56 µg/mL | FOLD CHANGES [Absorbance (abs; OD 600 nm)] No Treatment [Bacteria alone]: Colistin 0.5 μg (various pathogens; ACBA 1005 (CI)): 1.02 | FOLD CHANGES [Absorbance (abs; OD 600 nm)] No Treatment [Bacteria alone]: MIC Colistin (various pathogens; ACBA 1005 (CI)): 22.34 | MIC (various pathogens; ACBA 1005 (CI)): 1.56 µg/mL | FOLD CHANGES [Absorbance (abs; OD 600 nm)] No Treatment [Bacteria alone]: Colistin 0.5 μg (various pathogens; ACBA 1006 (CI)): 1.12 | FOLD CHANGES [Absorbance (abs; OD 600 nm)] No Treatment [Bacteria alone]: MIC Colistin (various pathogens; ACBA 1006 (CI)): 23.81 | MIC (various pathogens; ACBA 1006 (CI)): 1.56 µg/mL | FOLD CHANGES [Absorbance (abs; OD 600 nm)] No Treatment [Bacteria alone]: Colistin 0.5 μg (various pathogens; ACBA 1010 (CI)): 1.13 | FOLD CHANGES [Absorbance (abs; OD 600 nm)] No Treatment [Bacteria alone]: MIC Colistin (various pathogens; ACBA 1010 (CI)): 21.43 | MIC (various pathogens; ACBA 1010 (CI)): 0.39 µg/mL | FOLD CHANGES [Absorbance (abs; OD 600 nm)] No Treatment [Bacteria alone]: Colistin 0.5 μg (various pathogens; ACBA ATCC 19606): 2.04 | FOLD CHANGES [Absorbance (abs; OD 600 nm)] No Treatment [Bacteria alone]: MIC Colistin (various pathogens; ACBA ATCC 19606): 16.14 | MIC (various pathogens; ACBA ATCC 19606): 0.78 µg/mL | FOLD CHANGES [Absorbance (abs; OD 600 nm)] No Treatment [Bacteria alone]: Colistin 0.5 μg (various pathogens; ACBA DR 43357): 1.06 | FOLD CHANGES [Absorbance (abs; OD 600 nm)] No Treatment [Bacteria alone]: MIC Colistin (various pathogens; ACBA DR 43357): 25.47 | MIC (various pathogens; ACBA DR 43357): 1.56 µg/mL | FOLD CHANGES [Absorbance (abs; OD 600 nm)] No Treatment [Bacteria alone]: Colistin 0.5 μg (various pathogens; E. Coli ATCC 8739): 1.85 | FOLD CHANGES [Absorbance (abs; OD 600 nm)] No Treatment [Bacteria alone]: MIC Colistin (various pathogens; E. Coli ATCC 8739): 20.68 | MIC (various pathogens; E. Coli ATCC 8739): 0.78 µg/mL | FOLD CHANGES [Absorbance (abs; OD 600 nm)] No Treatment [Bacteria alone]: Colistin 0.5 μg (various pathogens; E. Coli ATCC 10536): 1.11 | FOLD CHANGES [Absorbance (abs; OD 600 nm)] No Treatment [Bacteria alone]: MIC Colistin (various pathogens; E. Coli ATCC 10536): 18.42 | MIC (various pathogens; E. Coli ATCC 10536): 0.78 µg/mL | FOLD CHANGES [Absorbance (abs; OD 600 nm)] No Treatment [Bacteria alone]: Colistin 0.5 μg (various pathogens; E. Coli ATCC 25922): 1.23 | FOLD CHANGES [Absorbance (abs; OD 600 nm)] No Treatment [Bacteria alone]: MIC Colistin (various pathogens; E. Coli ATCC 25922): 18.24 | MIC (various pathogens; E. Coli ATCC 25922): 0.78 µg/mL | FOLD CHANGES [Absorbance (abs; OD 600 nm)] No Treatment [Bacteria alone]: Colistin 0.5 μg (various pathogens; E. Coli ATCC 35218): 1.31 | FOLD CHANGES [Absorbance (abs; OD 600 nm)] No Treatment [Bacteria alone]: MIC Colistin (various pathogens; E. Coli ATCC 35218): 24.46 | MIC (various pathogens; E. Coli ATCC 35218): 0.78 µg/mL | FOLD CHANGES [Absorbance (abs; OD 600 nm)] No Treatment [Bacteria alone]: Colistin 0.5 μg (various pathogens; E. Coli CRE 11804): 1.19 | FOLD CHANGES [Absorbance (abs; OD 600 nm)] No Treatment [Bacteria alone]: MIC Colistin (various pathogens; E. Coli CRE 11804): 17.29 | MIC (various pathogens; E. Coli CRE 11804): 0.78 µg/mL | FOLD CHANGES [Absorbance (abs; OD 600 nm)] No Treatment [Bacteria alone]: Colistin 0.5 μg (various pathogens; E. Coli CRE 17232): 1.31 | FOLD CHANGES [Absorbance (abs; OD 600 nm)] No Treatment [Bacteria alone]: MIC Colistin (various pathogens; E. Coli CRE 17232): 16.09 | MIC (various pathogens; E. Coli CRE 17232): 0.78 µg/mL | FOLD CHANGES [Absorbance (abs; OD 600 nm)] No Treatment [Bacteria alone]: Colistin 0.5 μg (various pathogens; E. Coli CRE 17528): 1.45 | FOLD CHANGES [Absorbance (abs; OD 600 nm)] No Treatment [Bacteria alone]: MIC Colistin (various pathogens; E. Coli CRE 17528): 20.21 | MIC (various pathogens; E. Coli CRE 17528): 0.78 µg/mL | FOLD CHANGES [Absorbance (abs; OD 600 nm)] No Treatment [Bacteria alone]: Colistin 0.5 μg (various pathogens; E. Coli CRE 19211): 1.17 | FOLD CHANGES [Absorbance (abs; OD 600 nm)] No Treatment [Bacteria alone]: MIC Colistin (various pathogens; E. Coli CRE 19211): 20.56 | MIC (various pathogens; E. Coli CRE 19211): 1.56 µg/mL | FOLD CHANGES [Absorbance (abs; OD 600 nm)] No Treatment [Bacteria alone]: Colistin 0.5 μg (various pathogens; E. Coli CRE 34685): 1.49 | FOLD CHANGES [Absorbance (abs; OD 600 nm)] No Treatment [Bacteria alone]: MIC Colistin (various pathogens; E. Coli CRE 34685): 22.63 | MIC (various pathogens; E. Coli CRE 34685): 0.78 µg/mL | FOLD CHANGES [Absorbance (abs; OD 600 nm)] No Treatment [Bacteria alone]: Colistin 0.5 μg (various pathogens; E. Coli DB 16027R): 1.23
